According to patent publication US6610853B1, “N-(phenylsulfonyl)picolinamide derivatives, process for producing the same, and herbicide” (Kureha Kagaku Kogyo K.K., priority 2000, dated 2003):

Tests used:
Assay in all cases: Test on herbicidal activity by foliar application
Assay type in all cases: in vivo
Details in all cases: foliar spray, 1 kg/ha, plants at 1-2 leaf stage in pots, evaluated 14 days after spraying
Abutilon theophrasti = test system: Abutilon theophrasti
Method in brief: (§1)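 Wettable-powder formulations of test compounds were diluted and sprayed at 1 kg/ha onto pot-grown weeds at the 1-2 leaf stage. Activity was scored 14 days later on a 1-5 scale: 1 <30%, 2 30-50%, 3 50-70%, 4 70-90%, 5 ≥90% inhibition.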

Amaranthus retroflexus = test system: Amaranthus retroflexus
Method in brief: as §1

Bidens pilosa = test system: Bidens pilosa
Method in brief: as §1

Convolvulus arvensis = test system: Convolvulus arvensis
Method in brief: as §1

Galium aparine = test system: Galium aparine
Method in brief: as §1

Matricaria chamomilla = test system: Matricaria chamomilla
Method in brief: as §1

Setaria viridis = test system: Setaria viridis
Method in brief: as §1

Sinapis arvensis = test system: Sinapis arvensis
Method in brief: as §1

Solanum nigrum = test system: Solanum nigrum
Method in brief: as §1

Stellaria media = test system: Stellaria media
Method in brief: as §1

Veronica hederaefolia = test system: Veronica hederaefolia
Method in brief: as §1

SMILES | Herbicidal activity, Abutilon theophrasti (Abutilon theophrasti) | Herbicidal activity, Amaranthus retroflexus (Amaranthus retroflexus) | Herbicidal activity, Bidens pilosa (Bidens pilosa) | Herbicidal activity, Convolvulus arvensis (Convolvulus arvensis) | Herbicidal activity, Galium aparine (Galium aparine) | Herbicidal activity, Matricaria chamomilla (Matricaria chamomilla) | Herbicidal activity, Setaria viridis (Setaria viridis) | Herbicidal activity, Sinapis arvensis (Sinapis arvensis) | Herbicidal activity, Solanum nigrum (Solanum nigrum) | Herbicidal activity, Stellaria media (Stellaria media) | Herbicidal activity, Veronica hederaefolia (Veronica hederaefolia)
COc1ccc(C(=O)NS(=O)(=O)c2ccccc2S(=O)(=O)N(C)C)nc1[N+](=O)[O-] [Compound I-858, N-[[2-(N,N-Dimethylaminosulfonyl)phenyl]-sulfonyl]-5-methoxy-6-nitro-2-pyridinecarboxamide] | 5 (90% or more inhibition) | 5 (90% or more inhibition) | 5 (90% or more inhibition) | 5 (90% or more inhibition) | 5 (90% or more inhibition) | 4 (70% or more-90% inhibition) | 5 (90% or more inhibition) | 5 (90% or more inhibition) | 5 (90% or more inhibition) | 5 (90% or more inhibition) | 4 (70% or more-90% inhibition)
COc1ccc(C(=O)NS(=O)(=O)c2ccccc2S(=O)(=O)N(C)C)nc1C [Compound I-859, N-[[2-(N,N-Dimethylaminosulfonyl)phenyl]-sulfonyl]-6-methyl-5-methoxy-2-pyridinecarboxamide] | 5 (90% or more inhibition) | 5 (90% or more inhibition) | 5 (90% or more inhibition) | 4 (70% or more-90% inhibition) | 5 (90% or more inhibition) | 5 (90% or more inhibition) | 5 (90% or more inhibition) | 5 (90% or more inhibition) | 5 (90% or more inhibition) | 5 (90% or more inhibition) | 5 (90% or more inhibition)
CN(C)S(=O)(=O)c1ccccc1S(=O)(=O)NC(=O)c1cccc(Cl)n1 [Compound I-861, N-[[2-(N,N-Dimethylaminosulfonyl)phenyl]-sulfonyl)-6-chloro-2-pirydinecarboxamide] | 5 (90% or more inhibition) | 5 (90% or more inhibition) | 5 (90% or more inhibition) | 5 (90% or more inhibition) | 5 (90% or more inhibition) | 5 (90% or more inhibition) | 5 (90% or more inhibition) | 5 (90% or more inhibition) | 5 (90% or more inhibition) | 5 (90% or more inhibition) | 4 (70% or more-90% inhibition)
COc1ccc(C(=O)NS(=O)(=O)c2ccccc2S(=O)(=O)N(C)C)nc1 [Compound I-864] | 5 (90% or more inhibition) | 3 (50% or more-70% inhibition) | 5 (90% or more inhibition) | 3 (50% or more-70% inhibition) | 4 (70% or more-90% inhibition) | 5 (90% or more inhibition) | 4 (70% or more-90% inhibition) | 5 (90% or more inhibition) | 4 (70% or more-90% inhibition) | 5 (90% or more inhibition) | 4 (70% or more-90% inhibition)
Cc1nc(C(=O)NS(=O)(=O)c2ccccc2S(=O)(=O)N(C)C)ccc1[N+](=O)[O-] [Compound I-868, N-[[2-(N,N-Dimethylaminosulfonyl)phenyl]-sulfonyl]-6-methyl-5-nitro-2-pyridinecarboxamide] | 3 (50% or more-70% inhibition) | 3 (50% or more-70% inhibition) | 5 (90% or more inhibition) | 3 (50% or more-70% inhibition) | 5 (90% or more inhibition) | 2 (30% or more-50% inhibition) | 3 (50% or more-70% inhibition) | 5 (90% or more inhibition) | 4 (70% or more-90% inhibition) | 4 (70% or more-90% inhibition) | 3 (50% or more-70% inhibition)
COc1cc(Cl)nc(C(=O)NS(=O)(=O)c2ccccc2S(=O)(=O)N(C)C)c1 [Compound I-885, 6-Chloro-4-methoxy-N-[[2-(N,N-dimethylaminosulfonyl)phenyl]sulfonyl]-2-pyridinecarboxamide] | 5 (90% or more inhibition) | 5 (90% or more inhibition) | 5 (90% or more inhibition) | 5 (90% or more inhibition) | 5 (90% or more inhibition) | 5 (90% or more inhibition) | 5 (90% or more inhibition) | 5 (90% or more inhibition) | 5 (90% or more inhibition) | 5 (90% or more inhibition) | 4 (70% or more-90% inhibition)
COc1ccc(C(=O)NS(=O)(=O)c2ccccc2S(=O)(=O)N(C)C)nc1Cl [Compound I-888, N-[[2-(N,N-Dimethylaminosulfonyl)phenyl]-sulfonyl]-6-chloro-5-methoxy-2-pyridinecarboxamide] | 5 (90% or more inhibition) | 5 (90% or more inhibition) | 5 (90% or more inhibition) | 5 (90% or more inhibition) | 5 (90% or more inhibition) | 5 (90% or more inhibition) | 5 (90% or more inhibition) | 5 (90% or more inhibition) | 5 (90% or more inhibition) | 5 (90% or more inhibition) | 4 (70% or more-90% inhibition)
COc1ccc(C(=O)NS(=O)(=O)c2ccccc2S(=O)(=O)N(C)C)nc1OC [Compound I-889, N-[[2-(N,N-Dimethylaminosulfonyl)phenyl]-sulfonyl]-5,6-dimethoxy-2-pyridinecarboxamide] | 5 (90% or more inhibition) | 5 (90% or more inhibition) | 5 (90% or more inhibition) | 4 (70% or more-90% inhibition) | 5 (90% or more inhibition) | 5 (90% or more inhibition) | 4 (70% or more-90% inhibition) | 5 (90% or more inhibition) | 4 (70% or more-90% inhibition) | 5 (90% or more inhibition) | 3 (50% or more-70% inhibition)
COc1ccc(C(=O)NS(=O)(=O)c2ccccc2S(=O)(=O)N(C)C)nc1Br [Compound I-895, N-[[2-(N,N-Dimethylaminosulfonyl)phenyl]-sulfonyl]-6-bromo-5-methoxy-2-pyridinecarboxamide] | 5 (90% or more inhibition) | 5 (90% or more inhibition) | 5 (90% or more inhibition) | 5 (90% or more inhibition) | 5 (90% or more inhibition) | 5 (90% or more inhibition) | 5 (90% or more inhibition) | 5 (90% or more inhibition) | 5 (90% or more inhibition) | 5 (90% or more inhibition) | 5 (90% or more inhibition)
COc1cc(Cl)nc(C(=O)NS(=O)(=O)c2c(F)cccc2F)c1 [Compound I-975, N-[(2,6-Difluorophenyl)sulfonyl]-6-chloro-4-methoxy-2-pyridinecarboxamide] | 5 (90% or more inhibition) | 3 (50% or more-70% inhibition) | 5 (90% or more inhibition) | 4 (70% or more-90% inhibition) | 5 (90% or more inhibition) | 4 (70% or more-90% inhibition) | 3 (50% or more-70% inhibition) | 5 (90% or more inhibition) | 5 (90% or more inhibition) | 4 (70% or more-90% inhibition) | 3 (50% or more-70% inhibition)
